{"source": "paper PMC9311059", "about": "“P‐Glycoprotein and Breast Cancer Resistance Protein Transporter Inhibition by Cyclosporine and Quinidine on the Pharmacokinetics of Oral Rimegepant in Healthy Subjects” (Clinical Pharmacology in Drug Development, 2022)", "key": {"[1]": {"assay": "Part 1: pharmacokinetics of rimegepant 75 mg ODT alone or coadministered with cyclosporine 200 mg, 2-way crossover", "description": "This phase 1, open‐label, randomized, single‐dose, 2‐way crossover, 2‐part, drug‐drug interaction study was conducted at a single center (Syneos Health, Québec, Canada). Subjects were screened within 28 days preceding administration of study medication. In part 1, fasted subjects were randomly assigned to a single dose of rimegepant 75 mg ODT or a single dose of rimegepant 75 mg ODT coadministered with cyclosporine 200 mg (2 × 100‐mg capsules). […] Following the completion of part 1, an interim PK analysis and review of data were performed. Part 2 was to be conducted only if the rimegepant AUC from time 0 to infinity (AUC0‐inf) ratio of geometric means in part 1 was increased by >50% when coadministered with cyclosporine. In part 2, fasted subjects were randomly assigned to a single dose of rimegepant 75 mg ODT or a single dose of rimegepant 75 mg ODT coadministered with quinidine 600 mg (2 × 300‐mg tablets).\nIn part 1, subjects received 1 of the following treatments under fasting conditions: 1 oral dose of rimegepant 75 mg ODT (Catalent Pharma Solutions, Swindon, UK) or 1 oral dose of rimegepant 75 mg ODT coadministered with cyclosporine 200 mg (Novartis Pharmaceuticals Canada Inc., Dorval, Quebec, Canada). In part 2, subjects received 1 of the following treatments under fasting conditions: 1 oral dose of rimegepant 75 mg ODT alone or 1 oral dose of rimegepant 75 mg ODT coadministered with quinidine 600 mg (Sandoz Inc., West Princeton, New Jersey). In parts 1 and 2, the interval between treatments could not exceed 2 minutes.\nFor each treatment, subjects were confined from the morning of day −1 until after the 24‐hour postdose blood draw on day 2. Subjects returned for all subsequent blood draws. No food was allowed from at least 10 hours before dosing until at least 4 hours after dosing. Meals were standardized and similar in composition between periods. Except for water given with cyclosporine and quinidine, no fluids were allowed from 1 hour before dosing until 1 hour after dosing. Water was provided ad libitum at all other times. […] When appropriate, subjects were accompanied by a staff member while walking.\nIn each period, 20 blood samples for PK assessment were collected at the following time points: before dosing; 5, 10, 20, 30, 40, and 50 minutes after dosing; and 1, 1.5, 2, 2.5, 3, 4, 5, 6, 8, 12, 24 (day 2), 48 (day 3), and 72 (day 4) hours after dosing. […] Plasma samples were assayed for rimegepant using ultra‐performance liquid chromatography with tandem mass spectrometry detection (LC‐MS/MS). The quantifiable range was 10 to 5000 ng/mL. Plasma samples containing human ethylenediaminetetraacetic acid (EDTA) K2 plasma as an anticoagulant were processed using automated protein precipitation before LC‐MS/MS analysis. The internal standard was rimegepant‐^13C2d4. The validation was performed using an API 5000 LC/MS/MS system with Analyst software, version 1.6.3 (SCIEX, Framingham, Massachusetts). The pump flow was isocratic, with a flow rate set at 0.600 mL/min. The column was an Acquity UPLC BEH C18, 50×2.1 mm, 1.7 μm (Waters Corporation, Framingham, Massachusetts), which was maintained at a temperature of 60°C and contained Milli‐Q type water/acetonitrile with ammonium acetate and acetic acid. The mass‐to‐charge ratios monitored for rimegepant were 535.4 for the precursor ion and 256.1 for the product ion, whereas for the internal standard, they were 541.4 for the precursor ion and 256 for the product ion. […] Incurred sample reanalysis was carried out on ≈10% of randomly selected samples.\nThe effects of cyclosporine (part 1) or quinidine (part 2) on the single‐dose PK of rimegepant were evaluated using general linear model procedures in SAS (SAS Institute, Cary, North Carolina)."}, "[2]": {"system": "CYP2C9", "parameters": "method as in ref 7 = [7]; PMID 32058712; doi:10.1021/acs.jmedchem.9b01810; 7 Dubowchik GM , Conway CM , Xin AW . Blocking the CGRP pathway for acute and preventive treatment of migraine: the evolution of success . J Med Chem . 2020; 63 ( 13 ): 6600 ‐ 6623 . 32058712 10.1021", "conditions": "implicated in vitro; CYP2C9 allelic variation without significant influence; cited from earlier work"}, "[3]": {"conditions": "cited from earlier work"}, "[4]": {"conditions": "by cyclosporine 200 mg, single dose rimegepant 75 mg ODT, vs rimegepant alone"}, "[5]": {"conditions": "coadministration with cyclosporine 200 mg, rimegepant 75 mg"}, "[6]": {"conditions": "strong P‐gp inhibitors (cyclosporine, quinidine), parts 1 and 2"}}, "note": "Where “and” joins values, the source holds several entries; their conditions need not be identical. Equal values may be shown once.", "data": [{"smiles": "N[C@@H]1c2cccnc2[C@H](OC(=O)N2CCC(n3c(=O)[nH]c4ncccc43)CC2)CC[C@H]1c1cccc(F)c1F", "note": "[Rimegepant]", "values": [{"measurement": "increase in rimegepant AUC0‐inf", "setting": "[1]; [4]", "value": "60.1% and 60%"}, {"measurement": "increase in rimegepant Cmax", "setting": "[1]; [4]", "value": 41, "unit": "%"}, {"measurement": "rimegepant AUC0‐inf geometric mean ratio (90% CI) versus rimegepant alone", "setting": "[1]; [5]", "value": "1.6 (1.49‐1.72)"}, {"measurement": "rimegepant Cmax geometric mean ratio (90% CI) versus rimegepant alone", "setting": "[1]; [5]", "value": "1.41 (1.27‐1.57)"}, {"measurement": "Tmax", "setting": "[1]; human, in vivo, po, 75 mg", "value": 2, "unit": "h"}, {"measurement": "Tmax", "setting": "[1]; human, plasma, po", "value": 2.5, "unit": "h"}, {"measurement": "Tmax", "setting": "[1]; human, plasma, po, 75 mg", "value": 1.99, "unit": "h"}, {"measurement": "half-life", "setting": "[1]; human, plasma, po, 75 mg", "value": 7.59, "unit": "h"}, {"measurement": "AUC", "setting": "[1]; human, plasma, po, 75 mg, AUC0‐inf, arithmetic mean (percent coefficient of variation), part 1, rimegepant ODT 75 mg alone, single oral dose, N 15", "value": 4270, "unit": "ng·h/mL"}, {"measurement": "AUC", "setting": "[1]; human, plasma, po, 75 mg, AUC0‐inf, geometric least squares mean, part 1, rimegepant 75 mg ODT alone, single oral dose, fasted, N = 15", "value": 4110, "unit": "ng·h/mL"}, {"measurement": "AUC", "setting": "[1]; human, plasma, po, 75 mg, AUC0‐t, arithmetic mean (percent coefficient of variation), part 1, rimegepant ODT 75 mg alone, single oral dose, N 15", "value": 4250, "unit": "ng·h/mL"}, {"measurement": "AUC", "setting": "[1]; human, plasma, po, 75 mg, AUC0‐t, geometric least squares mean, part 1, rimegepant 75 mg ODT alone, single oral dose, fasted, N = 15", "value": 4090, "unit": "ng·h/mL"}, {"measurement": "Cmax", "setting": "[1]; human, plasma, po, 75 mg, arithmetic mean (percent coefficient of variation), part 1, rimegepant ODT 75 mg alone, single oral dose, N 15", "value": 862, "unit": "ng/mL"}, {"measurement": "Cmax", "setting": "[1]; human, plasma, po, 75 mg, geometric least squares mean, part 1, rimegepant 75 mg ODT alone, single oral dose, fasted, N = 15", "value": 824, "unit": "ng/mL"}, {"measurement": "CL/F, arithmetic mean (percent coefficient of variation)", "setting": "[1]; part 1, rimegepant ODT 75 mg alone, single oral dose, N 15", "value": "19.26 (31.84) L/h"}, {"measurement": "difference in geometric mean t1/2el between treatments", "setting": "[1]; part 1, rimegepant with cyclosporine vs rimegepant alone", "value": "≤ 5", "unit": "%"}, {"measurement": "increase in rimegepant exposure by strong P‐gp inhibitors, lower bound", "setting": "[1]; [6]", "value": "> 50", "unit": "%"}, {"measurement": "increase in rimegepant exposure by strong P‐gp inhibitors, upper bound", "setting": "[1]; [6]", "value": "< 2", "unit": "fold"}, {"measurement": "role of CYP2C9 in metabolism", "setting": "[2]", "value": "not to be a significant mediator of metabolism in vivo"}, {"measurement": "absolute oral bioavailability", "setting": "[3]; rimegepant ODT", "value": "≈ 64%"}, {"measurement": "median time to maximum plasma concentration (tmax)", "setting": "[3]; sublingual administration of rimegepant ODT, fasting conditions", "value": 1.5, "unit": "h"}]}]}
